Reference: patent US12606541B2, “PPARg modulators and methods of use” (Eisai R&D Management Co., Ltd., priority 2020, dated 2026)
pIC50: −log10 of the molar value. Where two headings read alike, the source gives them in different places.

Columns and labels:
[1] = test system: UM-UC-9 engineered cells; assay: Cell proliferation / short-term viability assay, CellTiter-Glo 144 h; type: cell-based, human; conditions: read-out: CTGlo 144 h UMUC9.5, G150
In short: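 Viability read by CellTiter-Glo 2.0 luminescence at day 7 versus DMSO-vehicle wells and a T0 plate measured on day 0. Cells: UM-UC-9 engineered assay-ready stocks, 500 cells/well in high-glucose DMEM with 10% FBS, 37° C, 5% CO2.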

[2] = target: T1, His6-TEV-PPARγ-(234-505) (Homo sapiens, UniProt P37231); assay: TR-FRET Assay to Measure Co-R Peptide Recruitment to PPARγ; type: biochemical; conditions: Co-R peptide (SMRT-ID2) recruitment, top final concentration 20 μM, read-out: TR-FRET i-Ag, AC50
T1 construct: The His6-TEV-PPARγ-(234-505) protein for assay was expressed and purified; TEV cleavage site (N); made in house
T1 sequence (P37231 234-505): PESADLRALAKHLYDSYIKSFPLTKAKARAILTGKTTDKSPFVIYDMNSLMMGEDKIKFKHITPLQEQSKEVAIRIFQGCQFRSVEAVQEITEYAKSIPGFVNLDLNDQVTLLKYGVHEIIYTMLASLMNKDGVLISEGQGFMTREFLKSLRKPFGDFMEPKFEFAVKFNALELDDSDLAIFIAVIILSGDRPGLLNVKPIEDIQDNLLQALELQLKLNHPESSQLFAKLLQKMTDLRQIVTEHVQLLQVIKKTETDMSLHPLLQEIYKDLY
In short: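 Corepressor recruitment is measured by adding terbium-labeled anti-His antibody and FITC SMRT-ID2 peptide, at 5 and 200 nM final, after a 20-minute room-temperature protein–compound incubation. After one further hour, signal is converted to percent response between DMSO and 500 nM T0070907 wells.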

COc1cc(-c2cc(C(=O)N3CCC(C(=O)Nc4c(F)ccc5ccnn45)CC34CC4)n[nH]2)c(F)cn1 (racemic) [Example 468, (R)-4-(5-(5-fluoro-2-methoxypyridin-4-yl)-1H-pyrazole-3-carbonyl)-N-(6-fluoropyrazolo[1,5-a]pyridin-7-yl)-4-azaspiro[2.5]octane-7-carboxamide and (S)-4-(5-(5-fluoro-2-methoxypyridin-4-yl)-1H-pyrazole-3-carbonyl)-N-(6-fluoropyrazolo[1,5-a]pyridin-7-yl)-4-azaspiro[2.5]octane-7-carboxamide]
pIC50 [1]: 7.10 | AC50 [2]: 8.3 nM

O=C(NCc1ncc(F)cc1Cl)C1CCN(C(=O)c2cc(-c3cc(C4CC4)ncc3F)[nH]n2)C2(CC2)C1 (racemic) [Example 480, (S)—N-((3-chloro-5-fluoropyridin-2-yl)methyl)-4-(5-(2-cyclopropyl-5-fluoropyridin-4-yl)-1H-pyrazole-3-carbonyl)-4-azaspiro[2.5]octane-7-carboxamide and (R)—N-((3-chloro-5-fluoropyridin-2-yl)methyl)-4-(5-(2-cyclopropyl-5-fluoropyridin-4-yl)-1H-pyrazole-3-carbonyl)-4-azaspiro[2.5]octane-7-carboxamide]
pIC50 [1]: 6.43 | AC50 [2]: 17.6 nM

CCc1cc(-c2cc(C(=O)N3CCC(C(=O)NCc4ncc(F)cc4Cl)CC34CC4)n[nH]2)c(F)cn1 (racemic) [Example 483, (S)—N-((3-chloro-5-fluoropyridin-2-yl)methyl)-4-(5-(2-ethyl-5-fluoropyridin-4-yl)-1H-pyrazole-3-carbonyl)-4-azaspiro[2.5]octane-7-carboxamide and (R)—N-((3-chloro-5-fluoropyridin-2-yl)methyl)-4-(5-(2-ethyl-5-fluoropyridin-4-yl)-1H-pyrazole-3-carbonyl)-4-azaspiro[2.5]octane-7-carboxamide]
pIC50 [1]: 7.35 | AC50 [2]: 6.2 nM

COc1cnc(CNC(=O)C2CCN(C(=O)c3cc(-c4cc(C)ncc4F)[nH]n3)C3(CC3)C2)c(Cl)c1 (racemic) [Example 484, (S)—N-((3-chloro-5-methoxypyridin-2-yl)methyl)-4-(5-(5-fluoro-2-methylpyridin-4-yl)-1H-pyrazole-3-carbonyl)-4-azaspiro[2.5]octane-7-carboxamide and (R)—N-((3-chloro-5-methoxypyridin-2-yl)methyl)-4-(5-(5-fluoro-2-methylpyridin-4-yl)-1H-pyrazole-3-carbonyl)-4-azaspiro[2.5]octane-7-carboxamide]
pIC50 [1]: 7.69 | AC50 [2]: 3.8 nM

COc1cc(-c2cc(C(=O)N3CC[C@H](C(=O)N[C@H]4CC[C@@](O)(C(F)(F)F)CC4)CC34CCC4)n[nH]2)c(F)cn1 (racemic) [Example 486, (S)-5-(5-(5-fluoro-2-methoxypyridin-4-yl)-1H-pyrazole-3-carbonyl)-N-((1r,4S)-4-hydroxy-4-(trifluoromethyl)cyclohexyl)-5-azaspiro[3.5]nonane-8-carboxamide and (R)-5-(5-(5-fluoro-2-methoxypyridin-4-yl)-1H-pyrazole-3-carbonyl)-N-((1r,4R)-4-hydroxy-4-(trifluoromethyl)cyclohexyl)-5-azaspiro[3.5]nonane-8-carboxamide]
pIC50 ([1]; Homo sapiens, UM-UC-9, 144 h): 7.35 | AC50 [2]: 5.2 nM

Cc1cc(-c2cc(C(=O)N3CC[C@H](C(=O)NCc4ncccc4C4CC4)CC34CC4)[nH]n2)c(F)cn1 (racemic) [Example 506, (S)—N-((3-cyclopropylpyridin-2-yl)methyl)-4-(3-(5-fluoro-2-methylpyridin-4-yl)-1H-pyrazole-5-carbonyl)-4-azaspiro[2.5]octane-7-carboxamide and (R)—N-((3-cyclopropylpyridin-2-yl)methyl)-4-(3-(5-fluoro-2-methylpyridin-4-yl)-1H-pyrazole-5-carbonyl)-4-azaspiro[2.5]octane-7-carboxamide]
pIC50 ([1]; Homo sapiens, UM-UC-9, 144 h): 7.69 | AC50 [2]: 10.3 nM

N#Cc1cc(-c2cc(C(=O)N3CCC(C(=O)NC4CCC(O)(C(F)(F)F)CC4)CC34CC4)n[nH]2)ncn1 (racemic) [Example 528, (R)-4-(5-(6-cyanopyrimidin-4-yl)-1H-pyrazole-3-carbonyl)-N-((1r,4R)-4-hydroxy-4-(trifluoromethyl)cyclohexyl)-4-azaspiro[2.5]octane-7-carboxamide and (S)-4-(5-(6-cyanopyrimidin-4-yl)-1H-pyrazole-3-carbonyl)-N-((1r,4S)-4-hydroxy-4-(trifluoromethyl)cyclohexyl)-4-azaspiro[2.5]octane-7-carboxamide]
pIC50 [1]: 6.32 | AC50 [2]: 6 nM

COc1cc(-c2cc(C(=O)N3CCC(C(=O)NC4CCC(C)CC4)CC3)n[nH]2)c(Cl)cn1 (single isomer, unassigned) [Example 101-B]
pIC50 ([1]; listed as 101b): 7.08 | AC50 [2]: 9.2 nM

CC[C@H]1CC[C@@H](NC(=O)C2CCN(C(=O)c3cc(-c4ccnc(OC)c4)[nH]n3)CC2)CC1 (single isomer, unassigned) [Example 108-A, N-((1s,4s)-4-ethylcyclohexyl)-1-(5-(2-methoxypyridin-4-yl)-1H-pyrazole-3-carbonyl)piperidine-4-carboxamide]
pIC50 ([1]; Homo sapiens, UM-UC-9, 144 h): 6.17 | AC50 [2]: 160 nM

COc1cc(-c2[nH]nc(C(=O)N3CCC(C(=O)NC4CCC(C)CC4)CC3)c2Cl)ccn1 (single isomer, unassigned) [Example 110-A]
pIC50 ([1]; listed as 110a): 5.50 | AC50 ([2]; listed as 110a): 2160 nM

COc1cc(-c2[nH]nc(C(=O)N3CCC(C(=O)NC4CCC(C)CC4)CC3)c2Cl)ccn1 (single isomer, unassigned) [Example 110-B]
pIC50 ([1]; listed as 110b): 6.16 | AC50 ([2]; listed as 110b): 217 nM

COc1cc(-c2cc(C(=O)N3CCC(C(=O)NC4CCC(C)CC4)CC3)n[nH]2)c(F)cn1 (single isomer, unassigned) [Example 114-A]
pIC50 ([1]; listed as 114a): 5.35 | AC50 ([2]; listed as 114a): 3470 nM

COc1cc(-c2cc(C(=O)N3CCC(C(=O)NC4CCC(C)CC4)CC3)n[nH]2)c(F)cn1 (single isomer, unassigned) [Example 114-B]
pIC50 ([1]; listed as 114b): 7.57 | AC50 ([2]; listed as 114b): 15.8 nM

COc1cc(-c2cc(C(=O)N3CCC(C(=O)NC(C)c4cccc(Cl)c4)CC3)n[nH]2)c(Cl)cn1 (single isomer, unassigned) [Example 115-A]
pIC50 ([1]; listed as 115a): 5.88 | AC50 ([2]; listed as 115a): 717 nM

COc1cc(-c2cc(C(=O)N3CCC(C(=O)NC(C)c4cccc(Cl)c4)CC3)n[nH]2)c(Cl)cn1 (single isomer, unassigned) [Example 115-B]
pIC50 ([1]; listed as 115b): 6.58 | AC50 ([2]; listed as 115b): 59.5 nM

COc1cc(-c2cc(C(=O)N3CCC(C(=O)NC4CCC(C(F)(F)F)CC4)CC3)n[nH]2)c(Cl)cn1 (single isomer, unassigned) [Example 118-A]
pIC50 ([1]; listed as 118a): 6.93 | AC50 ([2]; listed as 118a): 15.5 nM

COc1cc(-c2cc(C(=O)N3CCC(C(=O)NC4CCC(C(F)(F)F)CC4)CC3)n[nH]2)c(Cl)cn1 (single isomer, unassigned) [Example 118-B]
pIC50 ([1]; listed as 118b): 5.53 | AC50 ([2]; listed as 118b): 964 nM

COc1cc(-c2cc(C(=O)N3CC[C@@H](C(=O)N[C@H]4CC[C@@](O)(C(F)(F)F)CC4)CC34CC4)n[nH]2)c(F)cn1 (single isomer, unassigned) [Example 169-A]
pIC50 ([1]; Homo sapiens, UM-UC-9, 144 h): 6.56 | AC50 [2]: 79 nM

COc1cc(-c2cc(C(=O)N3CC[C@H](C(=O)N[C@H]4CC[C@@](O)(C(F)(F)F)CC4)CC34CC4)n[nH]2)c(F)cn1 (single isomer, unassigned) [Example 169-B]
pIC50 ([1]; Homo sapiens, UM-UC-9, 144 h): 8.85 | AC50 [2]: 2.3 nM

COc1cc(-c2cc(C(=O)N3[C@@H]4CC[C@H]3C[C@H](C(=O)N[C@H]3CC[C@@](O)(C(F)(F)F)CC3)C4)n[nH]2)c(F)cn1 (single isomer, unassigned) [Example 170-A]
pIC50 ([1]; Homo sapiens, UM-UC-9, 144 h): 7.93 | AC50 [2]: 4.7 nM

COc1cc(-c2cc(C(=O)N3CC[C@H](C(=O)NCc4cccc(Cl)c4)CC34CC4)n[nH]2)c(Cl)cn1 (single isomer, unassigned) [Example 245-A]
pIC50 ([1]; Homo sapiens, UM-UC-9, 144 h): 8.39 | AC50 [2]: 8.3 nM
